Like-named read-outs stand apart in the source and are kept apart here.

These results are taken from patent publication EP0693071B1, “NEW CARBOXYLIC-ACID ESTERS OF 2-AMINO-7-(1,3-DIHYDROXY-2-PROPOXYMETHYL)PURINE, THE PREPARATION OF SUCH ESTERS AND THEIR USE” (HOECHST AKTIENGESELLSCHAFT, priority 1993, dated 1994).

The assay has as its system Herpes simplex 1 Virus (HSV-1). Kind of assay: Activity against systemic HSV-1 infection in NMRI mice, oral treatment. In kind it is in vivo, NMRI-Mäuse. As to conditions: for ED50: read-out: IC50 (nach Reed und Muench); for mittlere Überlebenszeit (Tage): oral. The source says:
Wirkung gegen systemische Herpes simplex 1 Virus (HSV-1) Infektion: NMRI-Mäuse, spezifisch pathogenfrei, im Gewicht von 15 bis 18 g wurden intraperitoneal mit HSV-1 infiziert und anschließend mit den erfindungsgemäßen Verbindungen oral therapiert. Die Behandlung erfolgte erstmals 3 Stunden nach der Infektion und wurde zweimal täglich über 4 Tage fortgesetzt. Der Behandlungserfolg wurde anhand des Krankheitsverlaufes und der Überlebensrate gegenüber der unbehandelten Infektionskontrolle bestimmt. Letztere erhielt anstelle der erfindungsgemäßen Verbindungen physiologische Kochsalzlösung appliziert. Die Beobachtungszeit betrug zwei Wochen. Tabelle 1 zeigt die Ergebnisse dieser Untersuchung.

[1] abbreviates: Human alphaherpesvirus 1, 336 h, NMRI mouse, HSV-1 i.p. infection, oral treatment, 9 doses (first 3 h after infection, then twice daily over 4 days), 2 weeks observation.

In the case of `CCOCC(=O)OCC(COC(=O)COCC)OCn1cnc2nc(N)ncc21` [Beispiel 7, 2-Amino-7-[(1,3-bis-ethoxyacetoxy-2-propoxy)methyl]purin], the ED50 under setting [1] amounted to 13.2 µmol/kg.
On to `CCCCC(=O)OCC(COC(=O)CCCC)OCn1cnc2nc(N)ncc21` [Beispiel 2, 2-Amino-7-[(1,3-bis-valeroyloxy-2-propoxy)methyl]purin], for which, under setting [1], the ED50 is 12 µmol/kg. Further, for the setting “Dosierung 9 x 10 µmol/kg”, the “mittlere Überlebenszeit (Tage)” value was 9 ± 1,7 Tage.
Consider `Nc1ncc2c(ncn2COC(COC(=O)c2ccsc2)COC(=O)c2ccsc2)n1` [Beispiel 13], for which the ED50 under setting [1] was 5.6 µmol/kg.
Still for that read-out and setting: next, `Nc1ncc2c(ncn2COC(COC(=O)c2ccccc2)COC(=O)c2ccccc2)n1` [Beispiel 11, 2-Amino-7-[(1,3-bis-benzoyloxy-2-propoxy)methyl]purin]: 17.3 µmol/kg.
Turning to `CCCCC(=O)OCC(CO)OCn1cnc2nc(N)ncc21` (stereo not shown) [Beispiel 3, 2-Amino-7-[(1-hydroxy-3-valeroyloxy-2-propoxy)methyl]purin], the ED50 under setting [1] is less than 9.3 µmol/kg. The “mittlere Überlebenszeit (Tage)” value (Dosierung 9 x 9,3 µmol/kg) was 10 Tage.
With `Nc1ncc2c(ncn2COC(CO)COC(=O)C2CCCCC2)n1` (stereo not shown) [Beispiel 10, 2-Amino-7-[(1-cyclohexancarbonyloxy-3-hydroxy-2-propoxy)methyl] purin], under setting [1], the ED50 is 3.6 µmol/kg.
As to `Nc1ncc2c(ncn2COC(COC(=O)Cc2ccccc2)COC(=O)Cc2ccccc2)n1` [Beispiel 12, 2-Amino-7-[(1,3-bis-phenylacetoxy-2-propoxy)methyl]purin], for the setting “Human alphaherpesvirus 1, po, 336 h”, the ED50 is less than 10 µmol/kg.
As for `Nc1ncc2c(ncn2COC(COC(=O)C2CCCCC2)COC(=O)C2CCCCC2)n1` [Beispiel 9, 2-Amino-7-[(1,3-bis-cyclohexancarbonyloxy-2-propoxy)methyl]purin], the ED50 under setting [1] was 5.6 µmol/kg.
The same measure, in the same setting: then `Nc1ncc2c(ncn2COC(CO)CO)n1` [Formel 1, R1=R2=H (=Verb. der Formel 1'), 2-Amino-7-[(1,3-dihydroxy-2-propoxy)methyl]purin, reference compound], with 34.5 µmol/kg.
Take `COCC(=O)OCC(COC(=O)COC)OCn1cnc2nc(N)ncc21` [Beispiel 6, 2-Amino-7-[(1,3-bis-methoxyacetoxy-2-propoxy)methyl]purin]: the ED50 under setting [1] was less than 10 µmol/kg. In addition, for the setting “Dosierung 9 x 10 µmol/kg”, the “mittlere Überlebenszeit (Tage)” value was found to be 9 Tage.
`Nc1ncc2c(ncn2COC(COC(=O)Cc2cccnc2)COC(=O)Cc2cccnc2)n1` [Beispiel 15]: the ED50 under setting [1] came to 10 µmol/kg.
In the case of `CC(C)(C)C(=O)OCC(COC(=O)C(C)(C)C)OCn1cnc2nc(N)ncc21` [Beispiel 1, 2-Amino-7-[(1,3-bis-pivaloyloxy-2-propoxy)methyl]purin], under setting [1], the ED50 was 19.7 µmol/kg.
Same read-out and setting: next, `Nc1ncc2c(ncn2COC(CO)COC(=O)c2ccsc2)n1` (stereo not shown) [Beispiel 14]: 11.5 µmol/kg.
